Experimental data published in the NIST ThermoML archive (doi:10.1016/j.jct.2015.05.014).
Numbers after ± are expanded uncertainties.

Test: activity coefficient (dimensionless); of the first substance listed, at infinite dilution; xn = mol fraction of the nth substance listed
Details: 100 kPa, Liquid, Chromatography, x1 = 0

Compound | activity coefficient (308.15 K) | activity coefficient (318.15 K) | activity coefficient (328.15 K) | activity coefficient (338.15 K) | activity coefficient (348.15 K) | activity coefficient (358.15 K) | activity coefficient (368.15 K) | activity coefficient (378.15 K) | activity coefficient (388.15 K) | activity coefficient (398.15 K) | activity coefficient (408.15 K)
C=CCCCC [hex-1-ene] + CC(O)C(=O)[O-].CC[N+]1(C)CCCC1 | 56 ± 4.8 | 53.3 ± 4.6 | 50.9 ± 4.4 | 48.7 ± 4.2 | 46.6 ± 4 | 44.7 ± 3.9 | 42.9 ± 3.7 | – | – | – | –
C#CCCCCC [1-heptyne] + CC(O)C(=O)[O-].CC[N+]1(C)CCCC1 | 8.33 ± 0.72 | 8.83 ± 0.76 | 9.25 ± 0.8 | 9.82 ± 0.85 | 10.3 ± 0.9 | 10.7 ± 0.9 | 11.2 ± 1 | – | – | – | –
C1CCCCCCC1 [cyclooctane] + CC(O)C(=O)[O-].CC[N+]1(C)CCCC1 | 95.8 ± 8.3 | 88.7 ± 7.7 | 82.1 ± 7.1 | 77.2 ± 6.7 | 72.6 ± 6.3 | 68 ± 5.9 | 63.9 ± 5.5 | – | – | – | –
CCC(=O)CC [pentan-3-one] + CC(O)C(=O)[O-].CC[N+]1(C)CCCC1 | – | 4.84 ± 0.42 | 4.93 ± 0.43 | 5.05 ± 0.44 | 5.14 ± 0.44 | 5.22 ± 0.45 | 5.35 ± 0.46 | – | – | – | –
O [water] + CC(O)C(=O)[O-].CC[N+]1(C)CCCC1 | – | – | – | – | – | – | 0.046 | 0.052 | 0.059 | 0.066 ± 0.03 | 0.072 ± 0.03
C#CCCC [1-pentyne] + CC(O)C(=O)[O-].CC[N+]1(C)CCCC1 | 3.18 ± 0.27 | 3.43 ± 0.3 | 3.66 ± 0.32 | 3.95 ± 0.34 | 4.2 ± 0.4 | 4.46 ± 0.38 | 4.69 ± 0.4 | – | – | – | –
CCC(C)(C)OC [2-methoxy-2-methylbutane] + CC(O)C(=O)[O-].CC[N+]1(C)CCCC1 | 27.9 ± 2.4 | 27.8 ± 2.4 | 27.3 ± 2.4 | 26.8 ± 2.3 | 26.3 ± 2.3 | 26.1 ± 2.3 | 25.8 ± 2.2 | – | – | – | –
CCOC(C)(C)C [2-ethoxy-2-methylpropane] + CC(O)C(=O)[O-].CC[N+]1(C)CCCC1 | 46.2 ± 4 | 45.2 ± 3.9 | 43.9 ± 3.8 | 42.5 ± 3.7 | 41.6 ± 3.6 | 40.7 ± 3.5 | 39.7 ± 3.4 | – | – | – | –
CCCCCCC [heptane] + CC(O)C(=O)[O-].CC[N+]1(C)CCCC1 | 213 ± 18 | 196 ± 17 | 180 ± 16 | 167 ± 14 | 154 ± 13 | 144 ± 12 | 133 ± 12 | – | – | – | –
Cc1cccc(C)c1 [1,3-dimethylbenzene] + CC(O)C(=O)[O-].CC[N+]1(C)CCCC1 | – | 10.1 ± 0.9 | 10.2 ± 0.9 | 10.4 ± 0.9 | 10.4 ± 0.9 | 10.5 ± 0.9 | 10.7 ± 0.9 | – | – | – | –
C1COCCO1 [1,4-dioxane] + CC(O)C(=O)[O-].CC[N+]1(C)CCCC1 | – | 2.25 ± 0.19 | 2.33 ± 0.2 | 2.4 ± 0.21 | 2.48 ± 0.21 | 2.55 ± 0.22 | 2.65 ± 0.23 | – | – | – | –
CC#N [acetonitrile] + CC(O)C(=O)[O-].CC[N+]1(C)CCCC1 | – | 0.773 ± 0.065 | 0.808 ± 0.068 | 0.844 ± 0.07 | 0.88 ± 0.07 | 0.915 ± 0.076 | 0.962 ± 0.079 | – | – | – | –
CCCCO [butan-1-ol] + CC(O)C(=O)[O-].CC[N+]1(C)CCCC1 | – | – | – | – | – | 0.335 ± 0.036 | 0.361 ± 0.038 | 0.388 ± 0.039 | 0.421 ± 0.041 | 0.453 ± 0.043 | 0.486 ± 0.045
c1ccncc1 [pyridine] + CC(O)C(=O)[O-].CC[N+]1(C)CCCC1 | – | 1.26 ± 0.11 | 1.3 ± 0.11 | 1.36 ± 0.11 | 1.41 ± 0.12 | 1.46 ± 0.12 | 1.53 ± 0.13 | – | – | – | –
C1CCCCC1 [cyclohexane] + CC(O)C(=O)[O-].CC[N+]1(C)CCCC1 | 52.7 ± 4.6 | 48.6 ± 4.2 | 45 ± 3.9 | 42.6 ± 3.7 | 40.6 ± 3.5 | 38.4 ± 3.3 | 36.3 ± 3.1 | – | – | – | –
Cc1ccccc1C [1,2-dimethylbenzene] + CC(O)C(=O)[O-].CC[N+]1(C)CCCC1 | – | 8.23 ± 0.71 | 8.33 ± 0.72 | 8.46 ± 0.73 | 8.57 ± 0.74 | 8.69 ± 0.75 | 8.9 ± 0.8 | – | – | – | –
CC1CCCCC1 [methylcyclohexane] + CC(O)C(=O)[O-].CC[N+]1(C)CCCC1 | 87.4 ± 7.6 | 80.7 ± 7 | 75 ± 6.5 | 69.7 ± 6 | 65.7 ± 5.7 | 61.8 ± 5.3 | 57.8 ± 5 | – | – | – | –
